Measured values taken from US6930115B2, “Antitumor effect potentiators” (Mitsubishi Pharma Corporation, priority 2000, dated 2005).

What was measured:
[1] = system: mouse B16-F10 melanoma cultured cells; experiment: Hematogenous pulmonary metastasis after transplantation of mouse B16-F10 melanoma cultured cells into tail vein; format: in vivo; conditions: alone
Procedure: • (1) Preparation of mouse B16-F10 melanoma cultured cells (hereinafter simply B16-F10) B16-F10 cells (a permission to use was obtained from US M.D. Anderson Cancer Center, Dr. I. Fidler and provided for use from Japanese Foundation for cancer research·cancer chemotherapy center, Dr. […] For experiment, B16-F10 cells were suspended in MEM at 5×10^5 cells/mL and 0.2 mL thereof was transferred into the tail vein of 8-week-old male C57BL/6 mice (8 per group). […] Alzet, model 1002, flow rate […], for use for 14 days), and the osmotic pump was intraperitoneally transplanted into the mice one day before the transplantation of B16-F10 cells. • (3) As regards cisplatin, a preparation for injection (product name: Randa injection) was diluted with physiological saline and intraperitoneally administered once the day after transplantation of B16-F10 cells. As regards etoposide, a preparation for injection (product name: […] injection) was diluted with physiological saline and repeatedly administered intraperitoneally once a day for 5 days starting from one day after transplantation of B16-F10 cells. Paclitaxel was purchased from Sigma chemicals Co., suspended in 0.5% metolose solution and repeatedly administered intraperitoneally once every other day (3 times/week for 2 weeks) starting from one day after transplantation of B16-F10 cells. […] In addition, the values of combination index (CI) of the action in concomitant use analyzed by Median Effect Analysis (References and [2]) with regard to the combination group of the compound of the present invention and the anticancer agent are summarized in Table 3 and Table 6.

[2] = system: Mouse melanoma B16-F10 cells; experiment: Measurement of cell growth activity (MTT), in vitro growth of B16-F10 cells; format: cell-based; conditions: 72 hr culture, MTT
Procedure: Mouse melanoma B16-F10 cells (the aforementioned) were cultured in MEM supplemented with 2 mM L-glutamine, 1 mM MEM non-essential amino acids, 1% MEM vitamins, 1 mM pyruvic acid and 5% FCS, and the cells were scraped off from the culture flask every 3-4 days with a cell scraper (No. 3010, manufactured by Coaster), diluted 10-fold and maintained by subculture. In the experiment examining the effect of the test substance on the cell growth, the B16-F10 cells maintained in vitro by subculture were recovered with a cell scraper, suspended in MEM supplemented with 10% FCS at 2×10^5 cells/mL and added to a 96 well microtest plate (Becton Dickinson) at 1×10^4 cells/50 μL/well. Furthermore, 50 μL of a test substance at a 2-fold concentration of the final concentration was added to the well, and cultured in a CO2 incubator (MCO-175, SANYO Electric Co., Ltd.) at 37° C., 5% CO2 95% air for 72 hr.
After culture, 10 mg/mL of MTT [(3-[4,5-Dimethylthiazol-2-yl]-2,5-diphenyl-tetrazolium bromide)] was added at 10 μL/well, which was followed by culture for 3 hr. Thereafter, 100 μL of 10% SDS (sodium dodecylsulfate)—0.01N HCl was added to dissolve the pigment and absorbance at 570 nm was measured with a multilabel counter (1420 ARVO SX, Pharmacia Biotech Corporation). According to the concentration of the test substance, each well was expressed by absorbance, and average value and standard error. Using the well, to which the medium alone was added, as a control, the growth inhibition rate was calculated according to the following formula. [formula] Analysis method: Based on the dose reaction curves of the inventive compound alone treatment group and cisplatin alone treatment group, the combination index (CI) of the action in concomitant use is calculated by median effect analysis (References and [2]). (Results)

In the case of `CC(=O)O[C@H]1C(=O)[C@@]2(C)[C@H]([C@H](OC(=O)c3ccccc3)[C@]3(O)C[C@H](OC(=O)[C@H](O)[C@@H](NC(=O)c4ccccc4)c4ccccc4)C(C)=C1C3(C)C)[C@]1(OC(C)=O)CO[C@@H]1C[C@@H]2O` [paclitaxel, reference compound], the “T/C±standard error (average number of pulmonary metastatic colonies of administration group/control group ×100)” value ([1]; Table 5, paclitaxel 1 mg/kg intraperitoneally once every other day (3 times/week for 2 weeks)) is reported as 75.9 ± 5.9%, the “T/C±standard error (average number of pulmonary metastatic colonies of administration group/control group ×100)” value ([1]; Table 5, paclitaxel 2.5 mg/kg intraperitoneally once every other day (3 times/week for 2 weeks)) is reported as 48.8 ± 8.4% and the “T/C±standard error (average number of pulmonary metastatic colonies of administration group/control group ×100)” value ([1]; Table 5, paclitaxel 5 mg/kg intraperitoneally once every other day (3 times/week for 2 weeks)) is reported as 37.3 ± 4.0%. The “T/C±standard error (average number of pulmonary metastatic colonies of administration group/control group ×100)” value ([1]; Table 5, paclitaxel 10 mg/kg intraperitoneally once every other day (3 times/week for 2 weeks)) was 30.3 ± 3.6% and the “T/C±standard error (average number of pulmonary metastatic colonies of administration group/control group ×100)” value ([1]; Table 5, paclitaxel 25 mg/kg intraperitoneally once every other day (3 times/week for 2 weeks)) was 31.5 ± 7.2%.
`COc1cc([C@@H]2c3cc4c(cc3[C@@H](O[C@@H]3O[C@@H]5CO[C@@H](C)O[C@H]5[C@H](O)[C@H]3O)[C@H]3COC(=O)[C@H]23)OCO4)cc(OC)c1O` [etoposide, reference compound] was tested, and the “T/C±standard error (average number of pulmonary metastatic colonies of administration group/control group ×100)” value ([1]; Table 4, etoposide 1 mg/kg intraperitoneally once a day for 5 days) was 56.0 ± 3.0%, the “T/C±standard error (average number of pulmonary metastatic colonies of administration group/control group ×100)” value ([1]; Table 4, etoposide 2.5 mg/kg intraperitoneally once a day for 5 days) was 34.0 ± 7.4% and the “T/C±standard error (average number of pulmonary metastatic colonies of administration group/control group ×100)” value ([1]; Table 4, etoposide 5 mg/kg intraperitoneally once a day for 5 days) was 33.4 ± 4.0%. The “T/C±standard error (average number of pulmonary metastatic colonies of administration group/control group ×100)” value ([1]; Table 4, etoposide 10 mg/kg intraperitoneally once a day for 5 days) was 22.5 ± 4.2% and the “T/C±standard error (average number of pulmonary metastatic colonies of administration group/control group ×100)” value ([1]; Table 4, etoposide 25 mg/kg intraperitoneally once a day for 5 days) was 14.5 ± 2.6%.
In the case of `N.N.[Cl][Pt][Cl]` [cisplatin, reference compound], the “T/C±standard error (average number of pulmonary metastatic colonies of administration group/control group ×100)” value ([1]; Table 1, cisplatin 0.5 mg/kg intraperitoneally once, 14 days after cell transfer) is reported as 80.2 ± 13.2%, the “T/C±standard error (average number of pulmonary metastatic colonies of administration group/control group ×100)” value ([1]; Table 1, cisplatin 1 mg/kg intraperitoneally once, 14 days after cell transfer) is reported as 66.5 ± 8.3% and the “T/C±standard error (average number of pulmonary metastatic colonies of administration group/control group ×100)” value ([1]; Table 1, cisplatin 2.5 mg/kg intraperitoneally once, 14 days after cell transfer) is reported as 57.5 ± 3.0%. The “T/C±standard error (average number of pulmonary metastatic colonies of administration group/control group ×100)” value ([1]; Table 1, cisplatin 5 mg/kg intraperitoneally once, 14 days after cell transfer) was 53.3 ± 4.5%, the “T/C±standard error (average number of pulmonary metastatic colonies of administration group/control group ×100)” value ([1]; Table 1, cisplatin 10 mg/kg intraperitoneally once, 14 days after cell transfer) was 46.7 ± 4.1% and the “T/C±standard error (average number of pulmonary metastatic colonies of administration group/control group ×100)” value ([1]; Table 2, cisplatin 0.5 mg/kg intraperitoneally once, 14 days after cell transfer) was 81.7 ± 13.4%. For the same compound, the “T/C±standard error (average number of pulmonary metastatic colonies of administration group/control group ×100)” value ([1]; Table 2, cisplatin 1 mg/kg intraperitoneally once, 14 days after cell transfer) was 67.7 ± 8.4%, the “T/C±standard error (average number of pulmonary metastatic colonies of administration group/control group ×100)” value ([1]; Table 2, cisplatin 2.5 mg/kg intraperitoneally once, 14 days after cell transfer) was 58.6 ± 3.0% and the “T/C±standard error (average number of pulmonary metastatic colonies of administration group/control group ×100)” value ([1]; Table 2, cisplatin 5 mg/kg intraperitoneally once, 14 days after cell transfer) was 54.3 ± 4.6%. The “T/C±standard error (average number of pulmonary metastatic colonies of administration group/control group ×100)” value ([1]; Table 2, cisplatin 10 mg/kg intraperitoneally once, 14 days after cell transfer) was 30.8 ± 4.7%, the “average growth suppression rate ± standard error” value ([2]; cisplatin 10 μM alone) was 5.813 ± 1.510% and the “average growth suppression rate ± standard error” value ([2]; cisplatin 30 μM alone) was 29.609 ± 4.503%. For the same compound, the “average growth suppression rate ± standard error” value ([2]; cisplatin 100 μM alone) was 96.631 ± 0.109%.
